Source: the NIST ThermoML archive (doi:10.1021/je800751m)
± gives the expanded uncertainty stated by the source.

Experiment: excess molar enthalpy (molar enthalpy of mixing); xn = mol fraction of the nth substance listed
Settings: 298.15 K, 101 kPa, Liquid, Flow calorimetry

C1CCCCC1 [cyclohexane] + CCCCO
excess molar enthalpy (x1 = 0.0503): 0.0683 ± 0.0028 kJ/mol | excess molar enthalpy (x1 = 0.0998): 0.145 ± 0.003 kJ/mol | excess molar enthalpy (x1 = 0.1502): 0.217 ± 0.0033 kJ/mol | excess molar enthalpy (x1 = 0.1998): 0.287 ± 0.0037 kJ/mol | excess molar enthalpy (x1 = 0.2502): 0.35 ± 0.004 kJ/mol | excess molar enthalpy (x1 = 0.2997): 0.408 ± 0.0043 kJ/mol | excess molar enthalpy (x1 = 0.35): 0.4616 ± 0.0046 kJ/mol | excess molar enthalpy (x1 = 0.4002): 0.5105 ± 0.0049 kJ/mol | excess molar enthalpy (x1 = 0.4503): 0.5525 ± 0.0052 kJ/mol | excess molar enthalpy (x1 = 0.5003): 0.5873 ± 0.0054 kJ/mol | excess molar enthalpy (x1 = 0.5501): 0.6134 ± 0.0056 kJ/mol | excess molar enthalpy (x1 = 0.5997): 0.6295 ± 0.0057 kJ/mol | excess molar enthalpy (x1 = 0.6501): 0.6346 ± 0.0057 kJ/mol | excess molar enthalpy (x1 = 0.7002): 0.6267 ± 0.0056 kJ/mol | excess molar enthalpy (x1 = 0.7501): 0.6047 ± 0.0055 kJ/mol | excess molar enthalpy (x1 = 0.7996): 0.5671 ± 0.0054 kJ/mol | excess molar enthalpy (x1 = 0.85): 0.513 ± 0.0052 kJ/mol | excess molar enthalpy (x1 = 0.9): 0.439 ± 0.0051 kJ/mol | excess molar enthalpy (x1 = 0.9496): 0.334 ± 0.0048 kJ/mol
